Test results: patent US6489315B1, “Cyclic compounds, their production and use” (Takeda Chemical Industries, Ltd., priority 1995, dated 2002)

First: Cc1cnc2c(c1-c1ccccc1)C(=O)N(Cc1cc(C(F)(F)F)cc(C(F)(F)F)c1)CCN(C)C2=O [Example 50, 6-[3,5-Bis(trifluoromethyl)benzyl]-5,6,7,8,9,10-hexahydro-3,9-dimethyl-5,10-dioxo-4-phenylpyrido(2,3-f][1,4]diazocine]
Second: Cc1cnc2c(c1-c1ccccc1)C(=O)N(Cc1cc(C(F)(F)F)cc(C(F)(F)F)c1)CCCN(C)C2=O [Example 54, 6-[3,5-Bis(trifluoromethyl)benzyl]-6,7,8,9,10,11-hexahydro-3,10-dimethyl-5,11-dioxo-4-phenyl-5H-pyrido[2,3-g][1,5]diazonine]
The melting point of the first is lower: 203 to 205 °C for the first, 247 to 249 °C for the second.

Compared with `CN1CCN(Cc2cc(C(F)(F)F)cc(C(F)(F)F)c2)C(=O)c2c(-c3ccccc3)ccnc2C1=O` [Example 51, 6-[3,5-Bis(trifluoromethyl)benzyl]-5,6,7,8,9,10-hexahydro-9-methyl-5,10-dioxo-4-phenylpyrido[2,3-f][1,4]diazocine], `CCN1CCN(Cc2cc(C(F)(F)F)cc(C(F)(F)F)c2)C(=O)c2c(ncc(C)c2-c2ccccc2)C1=O` [Example 53, 6-[3,5-Bis(trifluoromethyl)benzyl]-9-ethyl-5,6,7,8,9,10-hexahydro-3-methyl-5,10-dioxo-4-phenylpyrido[2,3-f][1,4]diazocine] is higher in melting point: 167 to 169 °C for the first, 228 to 229 °C for the second.

First: Cc1cnc2c(c1-c1ccccc1)C(=O)N(Cc1ccccc1)CCN(C)C2=O [Example 52, 6-Benzyl-5,6,7,8,9,10-hexahydro-3,9-dimethyl-5,10-dioxo-4-phenylpyrido[2,3-f][1,4]diazocine]
Second: O=C1c2c(-c3ccccc3)ccnc2OCCN1Cc1ccccc1 [Example 67, 4-Benzyl-2,3,4,5-tetrahydro-5-oxo-6-phenylpyrido[3,2-f][1,4]oxazepine]
The melting point of the first is lower: 183 to 184 °C for the first, 209 to 211 °C for the second.

First: CN(C)C(=O)c1cc(-c2ccccc2)c2c(n1)OCCN(Cc1cc(C(F)(F)F)cc(C(F)(F)F)c1)C2=O [Example 59, 4-[3,5-Bis(trifluoromethyl)benzyl]-N,N-dimethyl-2,3,4,5-tetrahydro-5-oxo-6-phenylpyrido[3,2-f][1,4]oxazepine-8-carboxamide]
Second: CCCCNC(=O)c1cc(-c2ccccc2)c2c(n1)OCCN(Cc1cc(C(F)(F)F)cc(C(F)(F)F)c1)C2=O [Example 60, 4-[3,5-Bis(trifluoromethyl)benzyl]-N-n-butyl-2,3,4,5-tetrahydro-5-oxo-6-phenylpyrido[3,2-f][1,4]oxazepine-8-carboxamide]
The melting point of the first is higher: 235 to 236 °C for the first, 194 to 196 °C for the second.

First: O=C(c1cc(-c2ccccc2)c2c(n1)OCCN(Cc1cc(C(F)(F)F)cc(C(F)(F)F)c1)C2=O)N1CCCCC1 [Example 61, 4-[3,5-Bis(trifluoromethyl)benzyl]-2,3,4,5-tetrahydro-5-oxo-6-phenyl-8-piperidinocarbonylpyrido[3,2-f][1,4]oxazepine]
Second: Cc1ccc(-c2ccnc3c2C(=O)N(Cc2cc(C(F)(F)F)cc(C(F)(F)F)c2)CCO3)cc1 [Example 80, 4-[3,5-Bis(trifluoromethyl)benzyl]2,3,4,5-tetrahydro-5-oxo-6-(4-methylphenyl)pyrido[3,2-f][1,4]oxazepine]
The melting point of the first is higher: 218 to 220 °C for the first, 212 to 213 °C for the second.

First: COc1cc(CN2CCOc3nccc(-c4ccccc4)c3C2=O)cc(OC)c1OC [Example 64, 2,3,4,5-Tetrahydro-5-oxo-6-phenyl-4-(3,4,5-trimethoxybenzyl)pyrido[3,2-f][1,4]oxazepine]
Second: COc1ccc(CN2CCOc3nccc(-c4ccccc4)c3C2=O)cc1OC [Example 66, 4-(3,4-Dimethoxybenzyl)-2,3,4,5-tetrahydro-5-oxo-6-phenylpyrido[3,2-f][1,4]oxazepine]
The melting point of the first is higher: 177 to 179 °C for the first, 175 to 176 °C for the second.

First: O=C1c2c(-c3ccccc3)ccnc2OCCN1Cc1ccc(Cl)c(Cl)c1 [Example 65, 4-(3,4-Dichlorobenzyl)-2,3,4,5-tetrahydro-5-oxo-6-phenylpyrido[3,2-f][1,4]oxazepine]
Second: Cc1ccc(-c2ccnc3c2C(=O)N(Cc2ccccc2)CCO3)cc1 [Example 79, 4-Benzyl-2,3,4,5-tetrahydro-5-oxo-6-(4-methylphenyl)pyrido(3,2-f][1,4]oxazepine]
The melting point of the first is lower: 189 to 192 °C for the first, 203 to 204 °C for the second.

`C[C@@H]1COc2nccc(-c3ccccc3)c2C(=O)N(Cc2ccccc2)C1` [Example 69, (S)-5-Benzyl-2,3,4,5-tetrahydro-3-methyl-6-oxo-7-phenyl-6H-pyrido[2,3-b][1,5]oxazocine] and `C[C@H]1COc2nccc(-c3ccccc3)c2C(=O)N(Cc2ccccc2)C1` [Example 70, (R)-5-Benzyl-2,3,4,5-tetrahydro-3-methyl-6-oxo-7-phenyl-6H-pyrido[2,3-b][1,5]oxazocine] cannot be ordered by melting point: 139 to 141 °C for the first, 139 to 140 °C for the second.

`C[C@@H]1COc2nccc(-c3ccccc3)c2C(=O)N(Cc2cc(C(F)(F)F)cc(C(F)(F)F)c2)C1` [Example 71, (S)-5-[3,5-Bis(trifluoromethyl)benzyl]-2,3,4,5-tetrahydro-3-methyl-6-oxo-7-phenyl-6H-pyrido[2,3-b][1,5]oxazocine] and `C[C@H]1COc2nccc(-c3ccccc3)c2C(=O)N(Cc2cc(C(F)(F)F)cc(C(F)(F)F)c2)C1` [Example 72, (R)-5-[3,5-Bis(trifluoromethyl)benzyl]-2,3,4,5-tetrahydro-3-methyl-6-oxo-7-phenyl-6H-pyrido[2,3-b][1,5]oxazocine] fall in the same range of melting point: 142 to 143 °C for the first, 142 to 143 °C for the second.

First: Cc1ccc(-c2ccnc3c2C(=O)N(Cc2ccccc2)C[C@H](C)CO3)cc1 [Example 81, (S)-5-Benzyl-2,3,4,5-tetrahydro-3-methyl-7-(4-methylphenyl)-6-oxo-6H-pyrido[2,3-b][1,5]oxazocine]
Second: Cc1ccc(-c2ccnc3c2C(=O)N(Cc2cc(C(F)(F)F)cc(C(F)(F)F)c2)C[C@H](C)CO3)cc1 [Example 82, (S)-5-[3,5-Bis(trifluoromethyl)benzyl]2,3,4,5-tetrahydro-3-methyl-7-(4-methylphenyl)-6-oxo-6H-pyrido[2,3-b][1,5]oxazocine]
The melting point of the first is lower: 148 to 149 °C for the first, 159 to 160 °C for the second.

With `CNC(=O)c1cc(-c2ccccc2)c2c(n1)OCCN(Cc1cc(C(F)(F)F)cc(C(F)(F)F)c1)C2=O` [Example 58, 4-[3,5-Bis(trifluoromethyl)benzyl]-N-methyl-2,3,4,5-tetrahydro-5-oxo-6-phenylpyrido[3,2-f][1,4]oxazepine-8-carboxamide] the melting point was 145 °C (dec.).
